Reference: US9320722B2, “Regulators of aldehyde dehydrogenase ALDH3A1 and related therapeutic methods” (Indiana University Research and Technology Corporation, priority 2013, dated 2016)

Experiments:
ALDH3A1 [1] = target: T1, ALDH3A1 (Homo sapiens (Human), UniProt P30838); conditions: read-out: ALDH3A1 IC50 (micromolar); Table 4(B), hits from ChemBridge screen
Description: (§1) The enzymatic activity of ALDH1A1, ALDH2 and ALDH3A1 were measured as described previously^[30,34,37,39].
(§2) All reactions were initiated by the addition of the aldehyde substrate. The inhibition curves were fit to the Logistic four parameter IC50 equation using the SigmaPlot (v11, StatSys). We characterized the mode of inhibition using steady-state kinetics through co-variation of inhibitor and substrate concentrations. The steady state kinetic measurements were performed in 100 mM Na2HPO4 buffer, pH 7.5. […] In all cases—including the control reactions lacking inhibitors, the final reaction mixture contained 2% (v/v) DMSO. The reaction was initiated by addition of substrate and the initial rate of product formation was determined on a Beckman DU-640. All data were fit to the non-linear velocity expressions for competitive, non-competitive, mixed-type non-competitive and uncompetitive inhibition^[40]. Appropriateness of the inhibition model was determined through analysis of goodness-of-fit and the residuals of those fits. Lineweaver-Burke plots were created using SigmaPlot (v11, StatSys) to visualize the inhibition patterns. All data represent the average of three independent experiments utilizing triplicate assays at each concentration point.
(§3) ALDH1A1, ALDH2 and ALDH3A1 activities were measured as described earlier^33,44,45. […] Reaction was initiated by the addition of the aldehyde substrate. […] The inhibition curves were fit to the Logistic four parameter IC50 equation using the SigmaPlot (v11, StatSys). Steady state kinetic experiments were performed by co-varying inhibitor and substrate concentrations. The steady state kinetic measurements were performed in 100 mM Na2HPO4 buffer, pH 7.5.

ALDH3A1 [2] = target: T1, ALDH3A1; assay: biochemical; conditions: read-out: % activity left after treating with 10 micromolar inhibitor ALDH3A1
Description: as §1, §2, §3

Solubility = assay type: physicochemical
ALDH2 = ALDH2 (Homo sapiens (Human), UniProt P05091); assay: ALDH2 dehydrogenase activity / IC50 determination (propionaldehyde substrate); assay type: biochemical; conditions: up to 250 μM
Chain of ALDH2 (P05091 18-517): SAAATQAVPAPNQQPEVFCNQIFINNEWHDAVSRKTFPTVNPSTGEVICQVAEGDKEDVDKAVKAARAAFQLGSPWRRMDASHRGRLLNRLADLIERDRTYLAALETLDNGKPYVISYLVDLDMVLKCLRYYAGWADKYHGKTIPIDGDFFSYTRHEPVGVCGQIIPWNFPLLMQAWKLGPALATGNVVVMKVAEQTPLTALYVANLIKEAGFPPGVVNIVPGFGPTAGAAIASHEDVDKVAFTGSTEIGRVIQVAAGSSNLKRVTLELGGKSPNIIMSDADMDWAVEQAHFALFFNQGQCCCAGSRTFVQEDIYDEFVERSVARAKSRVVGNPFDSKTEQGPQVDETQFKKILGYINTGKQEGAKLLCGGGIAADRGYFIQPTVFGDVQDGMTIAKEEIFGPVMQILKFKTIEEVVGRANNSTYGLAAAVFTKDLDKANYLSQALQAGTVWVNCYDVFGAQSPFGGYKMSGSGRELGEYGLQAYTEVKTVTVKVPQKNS
Description: The enzymatic activity of ALDH1A1, ALDH2 and ALDH3A1 were measured as described previously^[30,34,37,39]. The specific activities of the purified proteins were 1.9, 3.8 and 32 μmole/min/mg for ALDH1A1, ALDH2 and ALDH3A1 respectively.
as §2, §3

ALDH1A1 = ALDH1A1 (Homo sapiens (Human), UniProt P00352); assay: ALDH1A1 dehydrogenase activity / IC50 determination (propionaldehyde substrate); assay type: biochemical; conditions: up to 250 μM
Chain of ALDH1A1 (P00352 whole entry): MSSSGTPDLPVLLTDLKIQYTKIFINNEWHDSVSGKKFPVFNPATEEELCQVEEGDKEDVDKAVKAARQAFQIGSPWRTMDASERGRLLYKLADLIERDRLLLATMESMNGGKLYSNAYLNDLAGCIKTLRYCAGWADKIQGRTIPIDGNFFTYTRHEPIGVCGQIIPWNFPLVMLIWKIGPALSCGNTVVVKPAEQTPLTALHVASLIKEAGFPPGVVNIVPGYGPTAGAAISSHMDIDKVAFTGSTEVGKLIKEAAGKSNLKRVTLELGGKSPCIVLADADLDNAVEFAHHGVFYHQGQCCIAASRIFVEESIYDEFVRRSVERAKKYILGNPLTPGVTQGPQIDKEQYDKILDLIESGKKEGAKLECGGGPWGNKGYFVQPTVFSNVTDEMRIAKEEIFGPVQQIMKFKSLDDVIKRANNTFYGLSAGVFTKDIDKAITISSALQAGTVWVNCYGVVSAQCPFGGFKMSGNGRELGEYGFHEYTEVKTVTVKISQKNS
Description: as §1, §2, §3

[3] = target: ALDH3A1 activity in A549 cell lysates (Homo sapiens (Human), UniProt P30838); assay type: biochemical; conditions: 50 μM CB29
Chain of ALDH3A1 activity in A549 cell lysates (P30838 whole entry): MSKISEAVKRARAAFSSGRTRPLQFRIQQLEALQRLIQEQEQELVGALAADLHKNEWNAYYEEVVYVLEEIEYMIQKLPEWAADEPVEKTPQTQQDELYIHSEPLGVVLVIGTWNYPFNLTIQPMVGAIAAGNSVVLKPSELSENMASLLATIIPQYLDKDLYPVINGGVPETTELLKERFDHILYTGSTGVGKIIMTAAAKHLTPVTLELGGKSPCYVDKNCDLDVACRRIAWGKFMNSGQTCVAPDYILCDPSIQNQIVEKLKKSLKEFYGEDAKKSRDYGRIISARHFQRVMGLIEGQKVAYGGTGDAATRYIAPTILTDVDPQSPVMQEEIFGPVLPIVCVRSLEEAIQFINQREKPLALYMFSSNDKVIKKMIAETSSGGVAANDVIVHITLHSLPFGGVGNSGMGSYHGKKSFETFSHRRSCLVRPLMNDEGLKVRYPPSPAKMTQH
Description: (§4) A549, SF767 and CCD13Lu cell lysates were collected exactly the same way as described before and 50 μg of cell lysate was used in the activity assay. […] All assays contained 1% (v/v) DMSO.
(§5) Cell lysates were obtained from A549, SF767 and CCD13Lu cell lines. In summary, cells (A549, SF767 and CCD13Lu) were washed with ice cold PBS to remove residual media. 400 μL of RIPA buffer (Cell signaling technologies) containing 1 mM PMSF (Sigma Aldrich) was added to each 10 cm dish. Plates were incubated on ice for 5 minutes, scraped and lysates were collected. Lysates were centrifuged for 10 minutes at 16,000×G in a micro-centrifuge at 4° C. Protein concentrations were measured using the Bradford reagent (Biorad Laboratories). 50 μg of cell lysate was used in the activity assay. […] All assays, including the controls, contained 1% (v/v) DMSO.

[4] = target: ALDH3A1 activity in SF767 cell lysates (Homo sapiens (Human), UniProt P30838); assay type: biochemical; conditions: 50 μM CB29
Chain of ALDH3A1 activity in SF767 cell lysates (P30838 whole entry): as above
Description: as §4, §5

ALDH3A1 [5] = target: T1, ALDH3A1; assay type: biochemical; conditions: 50 μM CB29
Description: as §4, §5

SF767 cells = assay: MTT assay for cell proliferation / mafosfamide sensitivity, SF767; assay type: cell-based; conditions: 50 μM inhibitor; 146±2 μM without inhibitor

T1 sequence (P30838 whole entry): as above

Row | SMILES | inhibition at 10 µM (ALDH3A1 [2]) [%] | other results
1 | N#CSCCCCOc1ccc(Cl)cc1 [CB1] |  | IC50 (ALDH3A1 [1]): 3.7 µM
2 | O=[N+](O)c1ccccc1CNc1ccc(F)c(F)c1 [CB2] |  | IC50 (ALDH3A1 [1]): 5.2 µM
3 | Cc1cc(OCC(=O)O)c([N+](=O)O)cc1Cl [CB3] | 55 | 
4 | Cc1cc(C2CNc3ccccc32)oc(=O)c1 (centres unmarked) [CB4] | 60 | 
5 | Nc1ccc(-c2cc(C(=O)O)c3ccccc3n2)cc1 [CB5] | 34 | 
6 | N#CSC1CN=C(NC2CCCCC2)S1 (centres unmarked) [CB6] | 6 | 
7 | Cc1nc2ccccc2n1S(=O)(=O)c1ccc(F)cc1 [CB7, 1-[(4-fluorophenyl)sulfonyl]-2-methyl-1H-benzimidazole] |  | solubility (in words) (Solubility): very good solubility
8 | N#CC(Cc1ccc(S(=O)(=O)c2ccc(Cl)cc2)cc1)c1nc2ccccc2[nH]1 (centres unmarked) [CB10] | 58 | 
9 | OCCCn1c(-c2ccc(Cl)cc2)cn2c3ccccc3nc12 [CB11] | 61 | 
10 | CCN(CC)CCC(=O)c1ccc2c(c1)OCO2 [CB12] |  | IC50 (ALDH3A1 [1]): 3.2 µM
11 | O=C(CCN1CCOCC1)c1ccc2c(c1)OCCO2 [CB13] |  | IC50 (ALDH3A1 [1]): 11.7 µM
12 | O=[N+]([O-])c1ccc(N2CCCC2)c(F)c1 [CB14] | 47 | 
13 | CCNC(=O)CC1Nc2cc(C)c(C)cc2NC1=O (centres unmarked) [CB16] | 50 | 
14 | CN(CC(=O)[O-])c1nc2ccc([N+](=O)O)cc2s1 [CB21] | 58 | 
15 | O=C(CSc1ccccc1)NCc1ccco1 [CB23] | 65 | 
16 | CCOc1cc(/C=C/[N+](=O)O)ccc1O [CB26] | 45 | 
17 | c1ccc(CNc2nc(-c3ccccn3)cs2)cc1 [CB27] | 43 | 
18 | CC(=O)Nc1ccc(Nc2ccc(S(C)(=O)=O)cc2[N+](=O)[O-])cc1 [CB29, N-[4-{(4-(methylsulfonyl)-2-nitrophenyl)-4-amino}-phenyl]-acetamide] |  | inhibition toward ALDH2 (ALDH2): < 5%; inhibition toward ALDH1A1 (ALDH1A1): < 5%; decrease of ALDH3A1 activity in A549 cell lysate [3]: > 95%; decrease of ALDH3A1 activity in SF767 cell lysate [4]: > 90%; decrease of activity of recombinant ALDH3A1 (ALDH3A1 [5]): ~97%; ED50 value of mafosfamide in the presence of inhibitor, SF767 (SF767 cells): 92 ± 4 µM; concentration of homogenous solution easily formed (Solubility; in the presence of […] DMSO): ≥ 100 µM
19 | O=C(O)CCc1ccc(-c2ccc(F)cc2)o1 [CB32] | 36 | 
20 | C=CCOc1ccc(/C=C/[N+](=O)O)cc1OC [CB35] | 46 | 
21 | C#CCOc1ccc(/C=C/[N+](=O)O)cc1 [CB36] | 30 | 
22 | Cc1ccc(/C=C/[N+](=O)O)cc1Br [CB37] | 30 | 
23 | COc1ccc(/C=C/[N+](=O)O)cc1Br [CB38] | 40 | 
